Measurements taken from PMC11392934 (Nature Communications, 2024).

Key:
MleS = target: T1, MleS (Lactococcus lactis, UniProt Q48662); assay: initial H+ consumption rate by pH microelectrode; type: biochemical; conditions: product inhibition; 5 mM L-malate, pH 7, 30 °C
T1 sequence (Q48662 1-540): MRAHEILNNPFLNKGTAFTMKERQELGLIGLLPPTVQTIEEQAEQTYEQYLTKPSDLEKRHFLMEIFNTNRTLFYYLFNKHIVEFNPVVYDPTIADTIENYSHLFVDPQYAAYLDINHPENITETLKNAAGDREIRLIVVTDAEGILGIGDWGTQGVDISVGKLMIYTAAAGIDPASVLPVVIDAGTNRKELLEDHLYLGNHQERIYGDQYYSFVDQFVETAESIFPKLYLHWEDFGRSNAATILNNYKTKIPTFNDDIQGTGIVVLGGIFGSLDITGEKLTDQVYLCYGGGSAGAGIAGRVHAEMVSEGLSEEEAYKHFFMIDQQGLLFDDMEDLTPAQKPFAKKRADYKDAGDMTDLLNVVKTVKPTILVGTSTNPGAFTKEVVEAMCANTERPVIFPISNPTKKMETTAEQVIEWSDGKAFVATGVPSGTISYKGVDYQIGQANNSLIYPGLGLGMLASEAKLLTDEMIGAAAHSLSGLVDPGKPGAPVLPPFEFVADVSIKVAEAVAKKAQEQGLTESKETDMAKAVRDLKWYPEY

LacY = target: T2, LacY (Escherichia coli, UniProt P02920); assay: inhibition of lactose-dependent NADPH production in MleP-LacY vesicles; type: biochemical; conditions: 100 µM D-lactose, pH 7, 30 °C; competitive; coupled read-out
T2 sequence (P02920 1-417): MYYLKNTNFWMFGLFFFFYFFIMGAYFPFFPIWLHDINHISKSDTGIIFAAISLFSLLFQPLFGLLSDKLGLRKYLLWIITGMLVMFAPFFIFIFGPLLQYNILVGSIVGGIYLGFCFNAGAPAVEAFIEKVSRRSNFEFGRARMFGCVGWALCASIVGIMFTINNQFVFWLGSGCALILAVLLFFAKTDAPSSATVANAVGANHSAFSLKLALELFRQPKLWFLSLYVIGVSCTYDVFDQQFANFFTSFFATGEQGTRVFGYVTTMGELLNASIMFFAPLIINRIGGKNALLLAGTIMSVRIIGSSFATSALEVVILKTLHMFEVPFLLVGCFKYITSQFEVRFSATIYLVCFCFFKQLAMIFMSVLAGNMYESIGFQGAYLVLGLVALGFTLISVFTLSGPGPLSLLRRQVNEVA

Row | % reduction of initial rate at 25 mM (MleS) | SMILES | effect at 20 mM (LacY)
1 | 50% | C[C@H](O)C(=O)O [L-lactate] | –
2 | – | CS[C@@H]1O[C@H](CO)[C@H](O)[C@H](O)[C@H]1O [methyl-β-D-thiogalactoside] | methyl-β-D-thiogalactoside (TMG) and thiodigalactoside (TDG)
3 | – | OC[C@H]1O[C@@H](S[C@@H]2O[C@H](CO)[C@H](O)[C@H](O)[C@H]2O)[C@H](O)[C@@H](O)[C@H]1O [thiodigalactoside] | NADPH fluorescence is reduced in the presence non-hydrolysable substrates
